Experimental data from patent publication US9227979B2, “Fluorescent antagonists of the A3 adenosine receptor” (The United States of America, as represented by the …, priority 2012, dated 2016).
Where a name gives a salt, the structure may show the parent alone. Read-outs that look alike come from different tables or passages of the source.

Columns and labels:
hA2AAR = hA2AAR (Homo sapiens (Human), UniProt P29274); assay: Radioligand membrane binding assay at hA2A AR ([3H]CGS21680); conditions: read-out: A2A Ki
Description: (§1) For cell cultures used in radioligand binding assays, after harvest and homogenization, the cells were centrifuged at 200×g for 10 min, and the pellet was re-suspended in 50 mM Tris-HCl buffer (pH 7.5), containing 10 mM MgCl2. The suspension was homogenized with an electric homogenizer for 10 s and was then re-centrifuged at 20,000×g for 20 min at 4° C. The resultant membrane pellets were resuspended in buffer in the presence of 3 units/ml adenosine deaminase, and the suspension was stored at −80° C. until the binding experiments. The protein concentration was measured using the Bradford assay. Radioligand membrane binding assays

A1AR = A1AR (Homo sapiens (Human), UniProt P30542); assay: FCM binding of fluorescent ligand to CHO cells expressing the A1AR
Description: (§2) Chinese hamster ovary (CHO) cells without heterologous AR expression were grown in DMEM/F12 (1:1) medium with 10% FBS, 2 mM L-glutamine, 50 U/ml penicillin/streptomycin. CHO cells expressing the A1 or A3 AR and HEK293 cells expressing the A2A AR were grown in the same medium but in the presence of 500 μg/ml hygromycin B and 800 μg/ml of G418, respectively. Cells, used for FCM analysis, were grown in 6-well plates (approximately 400,000 cells/well) and incubated at 37° C. for 24 h in the presence of 5% CO2. When confluency of the cells was reached 80% (approximately 10^6 cells/well), medium was replaced with fresh medium and MRS5449 was added in the presence or absence of competitive antagonists, and cells were processed for FCM.
(§3) The intensity of fluorescence emission of each sample was measured by using FCM. Cell suspensions were vortexed briefly before analysis on a Becton and Dickinson FACSCalibur flow cytometer (BD, Franklin Lakes, N.J.) with excitation at 488 nm. Samples were maintained in the dark during the analysis to avoid photobleaching. MFIs were obtained in the FL-1 channel in log mode. Ten thousand events were analyzed per sample. Data were collected using Cell Quest Pro software (BD, Franklin Lakes, N.J.) and analyzed by Cyflogic v. 1.2.1 software (CyFlo, Ltd., Turku, Finland).

hA3AR [1] = biological target: T1, hA3AR (Homo sapiens (Human), UniProt P0DMS8); assay: Radioligand membrane binding assay at hA3AR ([125I]I-AB-MECA); conditions: for Ki: read-out: A3 Ki
Description: as §1

hA3AR [2] = biological target: T1, hA3AR; assay: Fluorescent ligand binding by FCM in intact CHO cells expressing the hA3AR (preliminary, saturation, kinetics)
Description: In preliminary binding experiments of compounds 1-6 and MRS5449 were incubated with CHO cells expressing the hA3AR for 1 h at 37° C. in an atmosphere containing 5% CO2. The concentrations used were incubated with 1.5 μM 1, 5 μM 2, 1.5 μM 3, 10 μM 4, 20 μM 5, 15 μM 6, or 10 nM MRS5449. For further binding experiments with MRS5449, control CHO cells (CHO cells without heterologous receptor expression) and CHO cells expressing hA3AR were incubated with 10 nM MRS5449 for 3 h.
In saturation binding experiments, CHO cells expressing the hA3AR were incubated with concentrations of MRS5449 ranging from 2.5 nM to 250 nM for 1 h. To study binding kinetics of MRS5449, CHO cells expressing the hA3AR were incubated with 10 nM MRS5449 for different time intervals from 5 min to 3 h. The association and dissociation rate was measured as follows: 10 nM MRS5449 was added to CHO cells expressing the A3AR and measured total binding at different time intervals. After 90 min, dissociation was initiated by adding 10 μM of non-fluorescent A3AR antagonist MRS1220 and then measured the dissociation at different time intervals.
(§4) At the end of each time interval, the medium was removed and cells were washed three times with ice-cold DPBS. After washing, 1 ml 0.2% EDTA solution was added to each well, and cells were incubated at 37° C. for 7 min. Following cell detachment, 1 ml medium was added to each well to neutralize the EDTA. The cell suspensions were transferred to polystyrene round-bottom BD Falcon tubes (BD, Franklin Lakes, N.J.) and centrifuged for 5 min at 23° C. and 400×g. After centrifugation, the supernatant was discarded, and cells were washed with 3 ml PBS and centrifuged again at 23° C. and 400×g for 5 min. After discarding the supernatant, cells were suspended in 0.5 ml PBS and analyzed by FCM.
The mean fluorescence intensity (MFI) values of the standard particles were recorded under optimized instrument setting and converted into MESF values using the QuickCal program v. 2.3 (Bangs Laboratories, Inc., Fishers, Ind.). MFIs of receptor-bound fluorescent small molecules in this study were measured under exactly the same conditions and the assigned MESF values were extrapolated from the calibration curve.
as §3
Data analysis was performed with the Prism 5 (GraphPad, San Diego Calif.) software. The mean autofluorescence of CHO cells was measured in the absence of the fluorescent ligand. The mean fluorescence in the presence of fluorescent ligand was corrected by subtracting this value; Wood, J C S, Curr Protoc Cytom 2009; 1.4.1-1.4.14.

A2AAR = A2AAR (Homo sapiens (Human), UniProt P29274); assay: FCM binding of fluorescent ligand to HEK cells expressing the A2AAR
Description: as §2, §3

hA1 AR = hA1 AR (Homo sapiens (Human), UniProt P30542); assay: Radioligand membrane binding assay at hA1 AR ([3H]R-PIA); conditions: for Ki: read-out: A1 Ki
Description: as §1

A3AR = A3AR (Homo sapiens (Human), UniProt P0DMS8); assay: Cyclic AMP accumulation assay, antagonism of Cl-IB-MECA (Schild analysis); type: cell-based; conditions: inhibition of forskolin-stimulated cyclic AMP by Cl-IB-MECA in CHO cells expressing the A3AR
Description: CHO cells stably expressing the hA3AR were seeded in 24-well plates and incubated at 37° C. overnight. The medium was removed the following day and replaced with DMEM containing 50 mM HEPES, 10 μM rolipram, 3 units/ml adenosine deaminase (Worthington Biochemical Corp., Lakewood, N.J.), and increasing concentrations of agonists and incubated for […]. Forskolin (10 μM) was added and incubated for an additional 15 min. The medium was removed, and the cells were lysed with 200 μL of 0.1 M HCl. 100 μl of the HCl solution was used in the Sigma Direct cAMP Enzyme Immunoassay following the instructions provided with the kit. The OD values were measured with a SpectraMax M5 Microplate reader (Molecular Devices, Sunnyvale, Calif.) at 405 nm.

hA3AR [3] = biological target: T1, hA3AR; assay: FCM competitive binding in whole CHO cells using MRS5449 as tracer; conditions: whole CHO cells expressing hA3AR; 5 nM MRS5449 tracer; 90 min at 37° C.
Description: Total binding was measured in the absence of the competitor.
as §4
The intensity of fluorescence emission of each sample was measured by using FCM. […] Samples were maintained in the dark during the analysis to avoid photobleaching. MFIs were obtained in the FL-1 channel in log mode. Ten thousand events were analyzed per sample.
Data analysis was performed with the Prism 5 (GraphPad, San Diego Calif.) software. The mean autofluorescence of CHO cells was measured in the absence of the fluorescent ligand.

hA3AR [4] = biological target: T1, hA3AR; conditions: Table 2; cell membrane preparations using [125I]-AB-MECA; reported literature values; read-out: hA3AR radioligand binding, Ki; cited from earlier work

T1 sequence (P0DMS8 whole entry): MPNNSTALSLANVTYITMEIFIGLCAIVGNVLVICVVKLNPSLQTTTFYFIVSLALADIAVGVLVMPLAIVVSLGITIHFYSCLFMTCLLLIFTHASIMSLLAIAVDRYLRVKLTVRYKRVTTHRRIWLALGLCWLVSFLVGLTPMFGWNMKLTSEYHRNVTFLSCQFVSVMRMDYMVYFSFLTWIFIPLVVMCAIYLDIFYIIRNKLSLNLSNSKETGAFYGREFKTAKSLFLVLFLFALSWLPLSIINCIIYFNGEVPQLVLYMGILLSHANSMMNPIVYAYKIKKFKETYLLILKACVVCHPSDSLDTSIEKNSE
Sequence of hA1 AR (P30542 whole entry): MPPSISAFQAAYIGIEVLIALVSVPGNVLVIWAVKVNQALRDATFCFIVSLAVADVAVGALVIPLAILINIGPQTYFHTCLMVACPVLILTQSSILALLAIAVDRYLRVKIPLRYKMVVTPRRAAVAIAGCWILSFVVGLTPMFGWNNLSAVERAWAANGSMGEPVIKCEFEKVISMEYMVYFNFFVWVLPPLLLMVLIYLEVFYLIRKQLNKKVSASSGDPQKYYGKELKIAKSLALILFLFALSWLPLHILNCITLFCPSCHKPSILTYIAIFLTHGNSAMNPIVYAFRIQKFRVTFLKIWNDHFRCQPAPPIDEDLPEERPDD
Sequence of hA2AAR (P29274 whole entry): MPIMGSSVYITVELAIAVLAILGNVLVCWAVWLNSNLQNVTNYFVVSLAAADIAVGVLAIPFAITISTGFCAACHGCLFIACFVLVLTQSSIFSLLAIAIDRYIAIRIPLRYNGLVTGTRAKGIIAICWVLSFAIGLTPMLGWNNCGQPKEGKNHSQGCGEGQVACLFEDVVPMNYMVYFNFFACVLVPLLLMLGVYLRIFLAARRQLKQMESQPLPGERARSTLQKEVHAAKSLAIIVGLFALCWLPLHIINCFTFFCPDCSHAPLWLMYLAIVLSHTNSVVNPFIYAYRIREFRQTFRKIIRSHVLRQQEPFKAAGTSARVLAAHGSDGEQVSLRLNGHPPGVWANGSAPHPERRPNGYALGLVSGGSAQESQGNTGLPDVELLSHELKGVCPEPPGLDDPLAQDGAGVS
Sequence of A3AR (P0DMS8 whole entry): as the sequence (P0DMS8 whole entry) above
Sequence of A1AR (P30542 whole entry): as the sequence (P30542 whole entry) above
Sequence of A2AAR (P29274 whole entry): as the sequence (P29274 whole entry) above

Molecule	Ki (hA3AR [3]) [nM]	Ki (hA2AAR; Table 3) [nM]	Ki (hA3AR [1]; Table 3) [nM]	melting point	A1 % inhibition (hA1 AR; Table 3)	further results
2-(6-Amino-3-iminio-4,5-disulfonato-3H-xanthen-9-yl)-5-((6-(4-(4-((9-chloro-2-(furan-2-yl)-[1,2,4]triazolo[1,5-c]quinazolin-5-yl)amino)-4-oxobutyl)-1H-1,2,3-triazol-1-yl)hexyl)carbamoyl)benzoate [Compound 9]						Ki (hA2AAR; Table 1, HEK293 cells expressing hA2AAR, [3H]CGS21680): 73 nM; binding to CHO cells expressing the A1AR compared with binding to the A3AR (expressed as 100%) (A1AR): 0.3%; Ki (hA3AR [1]; Table 1, CHO cells expressing hA3AR, [125I]I-AB-MECA): 6.4 nM; selectivity for the A3AR (hA3AR [1]; versus hA1 and hA2AARs, radioligand binding Ki): over 10 fold; t1/2 for association (hA3AR [2]; 10 nM MRS5449, CHO cells expressing hA3AR): 53 min; Kd determined through association and dissociation kinetic experiments (hA3AR [2]; 10 nM MRS5449, dissociation initiated after 90 min with 10 μM MRS1220): 6.65 ± 0.55 nM; Nonspecific binding, % of total binding (hA3AR [2]; 10 nM MRS5449, with 10 μM MRS1220 or 10 μM Cl-IB-MECA or in control CHO cells): less than 1%; Kd (hA3AR [2]; FCM saturation binding, […] to 250 nM, nonspecific with 10 μM MRS1220, read-out: Kd (equilibrium binding constant, saturation binding)): 5.15 ± 1.11 nM; fluorescence emission (MFI) of cell-bound ligand (hA3AR [2]; preliminary FCM experiments, hA3AR CHO cells, 1 h at 37° C., concentration about two times Ki): sufficiently high MFI; binding to HEK cells expressing the A2AAR compared with binding to the A3AR (expressed as 100%) (A2AAR): 0.5%; Ki (hA1 AR; Table 1, CHO cells expressing hA1AR, agonist radioligand [3H]R-PIA): 87 nM; Kb (A3AR): 4.8 nM
OC[C@H]1O[C@@H](n2cnc3c(NC4CCCC4)ncnc32)[C@H](O)[C@@H]1O [CPA, (2R,3R,4S,5R)-2-[6-(cyclopentylamino)purin-9-yl]-5(hydroxymethyl)oxolane-3,4-diol]	1490 ± 230					
Nc1nc2ccc(Cl)cc2c2nc(-c3ccco3)nn12 [Compound 7]	16.1 ± 6.2					
Cn1cc2c(nc(NC(=O)Nc3ccc(CC(=O)NCCCCCN)cc3)n3nc(-c4ccco4)nc23)n1.O=C(O)C(F)(F)F [Compound 19, N-(5-aminopentyl)-2-(4-(3-(2-(furan-2-yl)-8-methyl-8H-pyrazolo[4,3-e][1,2,4]triazolo[1,5-c]pyrimidin-5-yl)ureido)phenyl)acetamide trifluoroacetate salt]		203 ± 52	2.66 ± 0.48	170 to 178 °C	6% ± 4%	
Cn1cc2c(nc(NC(=O)Nc3ccc(CC(=O)NCCOCCOCCN)cc3)n3nc(-c4ccco4)nc23)n1.O=C(O)C(F)(F)F [Compound 20, 2-(2-(2-(2-(4-(3-(2-(furan-2-yl)-8-methyl-8H-pyrazolo[4,3-e][1,2,4]triazolo[1,5-c]pyrimidin-5-yl)ureido)phenyl)acetamido)ethoxy)ethoxy)ethanamine trifluoroacetate salt]		267 ± 61	19.2 ± 3.3	152 to 160 °C	17% ± 3%	
Cn1cc2c(nc(NC(=O)Nc3ccc(CC(=O)NCCCOCCOCCOCCCN)cc3)n3nc(-c4ccco4)nc23)n1.O=C(O)C(F)(F)F [Compound 21, N-(3-(2-(2-(3-aminopropoxy)ethoxy)ethoxy)propyl)-2-(4-(3-(2-(furan-2-yl)-8-methyl-8H-pyrazolo[4,3-e][1,2,4]triazolo[1,5-c]pyrimidin-5-yl)ureido)phenyl)acetamide trifluoroacetate salt]		328 ± 77	10.3 ± 0.4	133 to 140 °C	1% ± 1%	
C#CCCCCC(=O)Nc1nc2nn(C)cc2c2nc(-c3ccco3)nn12 [Compound 38, N-(2-(furan-2-yl)-8-methyl-8H-pyrazolo[4,3-e][1,2,4]triazolo[1,5-c]pyrimidin-5-yl)hept-6-ynamide]		151 ± 33	7.26 ± 1.04	208 to 215 °C (dec.)		Ki (hA1 AR; Table 3): 891 ± 265 nM
C#CCCCCCC(=O)Nc1nc2nn(C)cc2c2nc(-c3ccco3)nn12 [Compound 39, N-(2-(furan-2-yl)-8-methyl-8H-pyrazolo[4,3-e][1,2,4]triazolo[1,5-c]pyrimidin-5-yl)oct-7-ynamide]		482 ± 141	12.8	204 to 208 °C (dec.)	62% ± 3%	

Second part, led by results:

Ki (hA3AR [3]) [nM]	Molecule	Ki (hA2AAR; Table 3) [nM]	Ki (hA3AR [1]; Table 3) [nM]	melting point	A1 % inhibition (hA1 AR; Table 3)	further results
9.54 ± 2.2	CCC1CN2C(=O)N(C)c3nc(-c4cc(Cl)cc(Cl)c4Cl)[nH]c3C2=N1 (stereo not shown) [PSB-10, 8-ethyl-1,4,7,8-tetrahydro-4-methyl-2-(2,3,5-trichlorophenyl)-5H-imidazo[2,1-i]purin-5-one monohydrochloride]					Ki (hA3AR [4]): 0.441 nM
300 ± 27	Nc1nc(NCCc2ccc(O)cc2)nc2nc(-c3ccco3)nn12 [ZM241385, 4-(2-[7-amino-2-(2-furyl)[1,2,4]triazolo[2,3-a][1,3,5]triazin-5-ylamino]ethyl)phenol]					
